Data as given in the supplement of paper PMC11061612.

Experiments:
Experiment in all cases: Bliss excess, mean over the matrix (fraction); higher = more synergy
NOS-1 (Osteosarcoma) = system: NOS-1 (Osteosarcoma)
Summary of the method: (§1)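 After 24 hours at 37°C and 5% CO2 in 1536-well plates, cells in DMEM/F12 or RPMI plus 10% FBS received two-drug dose matrices for 72 hours. Viability came from CellTiter-Glo 2.0 luminescence and was scaled as inhibition, anchored at 0 by vehicle wells and at 1 by blank wells. Combination Emax is taken as the second-highest inhibition in the matrix, and Bliss excess as the observed combination effect less EA + EB − EA·EB, with EA and EB the single-agent effects.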

[1] = system: RC-K8 (B-Cell Non-Hodgkin's Lymphoma)
Summary of the method: as §1

[2] = system: LU-135 (Small Cell Lung Carcinoma)
Summary of the method: as §1

[3] = system: NCI-H2085 (Non-Small Cell Lung Carcinoma)
Summary of the method: as §1

[4] = system: TE-15 (Esophageal Squamous Cell Carcinoma)
Summary of the method: as §1

NB10 (Neuroblastoma) = system: NB10 (Neuroblastoma)
Summary of the method: as §1

[5] = system: HuP-T4 (Pancreatic Carcinoma)
Summary of the method: as §1

[6] = system: LB831-BLC (Bladder Carcinoma)
Summary of the method: as §1

T98G (Glioblastoma) = system: T98G (Glioblastoma)
Summary of the method: as §1

[7] = system: HCC-78 (Lung Adenocarcinoma)
Summary of the method: as §1

[8] = system: OVCA420 (Ovarian Carcinoma)
Summary of the method: as §1

[9] = system: CaR-1 (Colorectal Carcinoma)
Summary of the method: as §1

[10] = system: KP-1N (Pancreatic Carcinoma)
Summary of the method: as §1

[11] = system: HT-1376 (Bladder Carcinoma)
Summary of the method: as §1

[12] = system: Daoy (Other Solid Carcinomas)
Summary of the method: as §1

[13] = system: EC-GI-10 (Esophageal Squamous Cell Carcinoma)
Summary of the method: as §1

[14] = system: COLO-205 (Colorectal Carcinoma)
Summary of the method: as §1

[15] = system: SNU-5 (Gastric Carcinoma)
Summary of the method: as §1

[16] = system: CCRF-CEM (T-Lymphoblastic Leukemia)
Summary of the method: as §1

HOS (Osteosarcoma) = system: HOS (Osteosarcoma)
Summary of the method: as §1

`CC1(C)CCC(CN2CCN(c3ccc(C(=O)NS(=O)(=O)c4ccc(NCC5CCOCC5)c([N+](=O)[O-])c4)c(Oc4cnc5[nH]ccc5c4)c3)CC2)=C(c2ccc(Cl)cc2)C1` [Venetoclax] + C=CCn1c(=O)c2cnc(Nc3ccc(N4CCN(C)CC4)cc3)nc2n1-c1cccc(C(C)(C)O)n1 [AZD1775] (first compound max 1 µM, partner max 1 µM) gave a Bliss excess (NOS-1 (Osteosarcoma)) of 0.0193, a Bliss excess [1] of -0.0082 and a Bliss excess [2] of -0.0538. For the same compound, the Bliss excess [3] was -0.063, the Bliss excess [4] was -0.0737 and the Bliss excess (NB10 (Neuroblastoma)) was -0.0113. The Bliss excess [5] was -0.0443, the Bliss excess [6] was -0.0004 and the Bliss excess (T98G (Glioblastoma)) was 0.0648. It also gave a Bliss excess [7] of 0.0098, a Bliss excess [8] of -0.0079 and a Bliss excess [9] of -0.0159. It also gave a Bliss excess [10] of -0.047, a Bliss excess [11] of -0.0226 and a Bliss excess [12] of -0.0683. For the same compound, the Bliss excess [13] was 0.0086, the Bliss excess [14] was -0.0661 and the Bliss excess [15] was -0.0649. The Bliss excess [16] was 0.0922 and the Bliss excess (HOS (Osteosarcoma)) was -0.0335.
Work on `CC1(C)CCC(CN2CCN(c3ccc(C(=O)NS(=O)(=O)c4ccc(NCC5CCOCC5)c([N+](=O)[O-])c4)c(Oc4cnc5[nH]ccc5c4)c3)CC2)=C(c2ccc(Cl)cc2)C1` [Venetoclax] + CCN(CCO)CCCOc1ccc2c(Nc3cc(CC(=O)Nc4cccc(F)c4)[nH]n3)ncnc2c1 [AZD2811] (first compound max 1 µM, 7x7, partner max 1 µM) yielded a Bliss excess (NOS-1 (Osteosarcoma)) of -0.0156, a Bliss excess [1] of 0.0214 and a Bliss excess [2] of -0.0099. The Bliss excess [3] was -0.0189, the Bliss excess [4] was -0.0386 and the Bliss excess (NB10 (Neuroblastoma)) was -0.0539. It also gave a Bliss excess [5] of -0.0061, a Bliss excess [6] of -0.0073 and a Bliss excess (T98G (Glioblastoma)) of -0.0169. It also gave a Bliss excess [7] of -0.0149, a Bliss excess [8] of -0.0114 and a Bliss excess [9] of -0.055. It also gave a Bliss excess [10] of -0.0182, a Bliss excess [11] of -0.0605 and a Bliss excess [12] of -0.0311. The Bliss excess [13] was -0.0058, the Bliss excess [14] was -0.0461 and the Bliss excess [15] was -0.0426. The Bliss excess [16] was -0.0322 and the Bliss excess (HOS (Osteosarcoma)) was -0.0102.
Compound `CC1(C)CCC(CN2CCN(c3ccc(C(=O)NS(=O)(=O)c4ccc(NCC5CCOCC5)c([N+](=O)[O-])c4)c(Oc4cnc5[nH]ccc5c4)c3)CC2)=C(c2ccc(Cl)cc2)C1` [Venetoclax] + CN(C)CCCOc1ccc(-c2ccc3ncc4c(c3c2)n(C2CCOCC2)c(=O)n4C)cn1 [AZD0156] (first compound max 1 µM, 7x7, partner max 1 µM) has a Bliss excess (NOS-1 (Osteosarcoma)) of -0.0358, a Bliss excess [1] of 0.0282 and a Bliss excess [2] of -0.0012. It also gave a Bliss excess [3] of -0.0295, a Bliss excess [4] of -0.0298 and a Bliss excess (NB10 (Neuroblastoma)) of 0.0418. The Bliss excess [5] was -0.0099, the Bliss excess [6] was -0.061 and the Bliss excess (T98G (Glioblastoma)) was -0.0509. The Bliss excess [7] was 0.0213, the Bliss excess [8] was -0.02 and the Bliss excess [9] was -0.0201. It also gave a Bliss excess [10] of -0.0431, a Bliss excess [11] of -0.0151 and a Bliss excess [12] of -0.0076. The Bliss excess [13] was 0.0119, the Bliss excess [14] was -0.0153 and the Bliss excess [15] was 0.0053. The Bliss excess [16] was 0.0436 and the Bliss excess (HOS (Osteosarcoma)) was -0.033.
In the case of `CC1(C)CCC(CN2CCN(c3ccc(C(=O)NS(=O)(=O)c4ccc(NCC5CCOCC5)c([N+](=O)[O-])c4)c(Oc4cnc5[nH]ccc5c4)c3)CC2)=C(c2ccc(Cl)cc2)C1` [Venetoclax] + COc1cc(Nc2ncc3c(n2)-c2ccc(Cl)cc2C(c2c(F)cccc2OC)=NC3)ccc1C(=O)O [Alisertib] (first compound max 1 µM, 7x7, partner max 10 µM), the Bliss excess (NOS-1 (Osteosarcoma)) is reported as -0.0231, the Bliss excess [1] is reported as 0.024 and the Bliss excess [2] is reported as -0.0236. The Bliss excess [3] was 0.0491, the Bliss excess [4] was 0.0102 and the Bliss excess (NB10 (Neuroblastoma)) was -0.0052. For the same compound, the Bliss excess [5] was 0.0336, the Bliss excess [6] was -0.0354 and the Bliss excess (T98G (Glioblastoma)) was -0.0205. For the same compound, the Bliss excess [7] was 0.0127, the Bliss excess [8] was -0.025 and the Bliss excess [9] was 0.008. For the same compound, the Bliss excess [10] was 0.0194, the Bliss excess [11] was -0.0812 and the Bliss excess [12] was 0.105. The Bliss excess [13] was 0.0164, the Bliss excess [14] was -0.0172 and the Bliss excess [15] was -0.0218. The Bliss excess [16] was -0.0493 and the Bliss excess (HOS (Osteosarcoma)) was -0.0132.
`CC1(C)CCC(CN2CCN(c3ccc(C(=O)NS(=O)(=O)c4ccc(NCC5CCOCC5)c([N+](=O)[O-])c4)c(Oc4cnc5[nH]ccc5c4)c3)CC2)=C(c2ccc(Cl)cc2)C1` [Venetoclax] + C[C@@H]1COCCN1C2=NC(=NC(=C2)C3(CC3)[S@](=N)(=O)C)C4=C5C=CNC5=NC=C4 [AZD6738] (first compound max 1 µM, 7x7, partner max 10 µM) showed a Bliss excess (NOS-1 (Osteosarcoma)) of -0.057, a Bliss excess [1] of -0.0294 and a Bliss excess [2] of 0.0538. It also gave a Bliss excess [3] of 0.0309, a Bliss excess [4] of -0.0314 and a Bliss excess (NB10 (Neuroblastoma)) of 0.0159. For the same compound, the Bliss excess [5] was -0.037, the Bliss excess [6] was 0.0045 and the Bliss excess (T98G (Glioblastoma)) was -0.061. It also gave a Bliss excess [7] of -0.0195, a Bliss excess [8] of 0.0047 and a Bliss excess [9] of -0.0005. For the same compound, the Bliss excess [10] was -0.0217, the Bliss excess [11] was -0.0365 and the Bliss excess [12] was -0.028. It also gave a Bliss excess [13] of 0.0294, a Bliss excess [14] of -0.0328 and a Bliss excess [15] of -0.0437. The Bliss excess [16] was 0.0224 and the Bliss excess (HOS (Osteosarcoma)) was -0.0099.
`CC1(C)CCC(CN2CCN(c3ccc(C(=O)NS(=O)(=O)c4ccc(NCC5CCOCC5)c([N+](=O)[O-])c4)c(Oc4cnc5[nH]ccc5c4)c3)CC2)=C(c2ccc(Cl)cc2)C1` [Venetoclax] + C[C@@H](Nc1cc(F)cc(F)c1)c1cc(C(=O)N(C)C)cc2c(=O)cc(N3CCOCC3)oc12 [AZD8186] (first compound max 1 µM, 7x7, partner max 3 µM) showed a Bliss excess (NOS-1 (Osteosarcoma)) of 0.018, a Bliss excess [1] of 0.018 and a Bliss excess [2] of 0.121. For the same compound, the Bliss excess [3] was 0.0025, the Bliss excess [4] was -0.0307 and the Bliss excess (NB10 (Neuroblastoma)) was -0.0084. For the same compound, the Bliss excess [5] was 0.0033, the Bliss excess [6] was -0.0465 and the Bliss excess (T98G (Glioblastoma)) was -0.0064. It also gave a Bliss excess [7] of -0.0337, a Bliss excess [8] of -0.0285 and a Bliss excess [9] of -0.0366. For the same compound, the Bliss excess [10] was 0.0036, the Bliss excess [11] was -0.0446 and the Bliss excess [12] was -0.0073. It also gave a Bliss excess [13] of -0.0139, a Bliss excess [14] of 0.0279 and a Bliss excess [15] of 0.0236. The Bliss excess [16] was 0.012 and the Bliss excess (HOS (Osteosarcoma)) was -0.0262.
`CC1(C)CCC(CN2CCN(c3ccc(C(=O)NS(=O)(=O)c4ccc(NCC5CCOCC5)c([N+](=O)[O-])c4)c(Oc4cnc5[nH]ccc5c4)c3)CC2)=C(c2ccc(Cl)cc2)C1` [Venetoclax] + Cc1cc2ncnn2cc1Nc1ncc2c(n1)n(C1CCOCC1)c(=O)n2C [AZD7648] (first compound max 1 µM, 7x7, partner max 10 µM) showed a Bliss excess (NOS-1 (Osteosarcoma)) of -0.0504, a Bliss excess [1] of 0.0156 and a Bliss excess [2] of -0.087. The Bliss excess [3] was -0.0535, the Bliss excess [4] was -0.0519 and the Bliss excess (NB10 (Neuroblastoma)) was 0.0053. It also gave a Bliss excess [5] of -0.0151, a Bliss excess [6] of -0.0497 and a Bliss excess (T98G (Glioblastoma)) of -0.0693. For the same compound, the Bliss excess [7] was -0.017, the Bliss excess [8] was -0.0089 and the Bliss excess [9] was -0.048. For the same compound, the Bliss excess [10] was -0.0217, the Bliss excess [11] was -0.0226 and the Bliss excess [12] was -0.0129. The Bliss excess [13] was 0.038, the Bliss excess [14] was -0.0584 and the Bliss excess [15] was -0.0063. The Bliss excess [16] was 0.044 and the Bliss excess (HOS (Osteosarcoma)) was -0.0019.
Compound `CC1(C)CCC(CN2CCN(c3ccc(C(=O)NS(=O)(=O)c4ccc(NCC5CCOCC5)c([N+](=O)[O-])c4)c(Oc4cnc5[nH]ccc5c4)c3)CC2)=C(c2ccc(Cl)cc2)C1` [Venetoclax] + Cn1cnc2c(F)c(Nc3ccc(Br)cc3Cl)c(C(=O)NOCCO)cc21 [Selumetinib] (first compound max 1 µM, 7x7, partner max 3 µM) has a Bliss excess (NOS-1 (Osteosarcoma)) of -0.0082, a Bliss excess [1] of -0.0112 and a Bliss excess [2] of -0.0545. The Bliss excess [3] was -0.0271, the Bliss excess [4] was -0.0268 and the Bliss excess (NB10 (Neuroblastoma)) was 0.0021. The Bliss excess [5] was 0.0009, the Bliss excess [6] was -0.0239 and the Bliss excess (T98G (Glioblastoma)) was -0.0186. For the same compound, the Bliss excess [7] was -0.0329, the Bliss excess [8] was -0.045 and the Bliss excess [9] was -0.0511. The Bliss excess [10] was -0.0176, the Bliss excess [11] was -0.0411 and the Bliss excess [12] was -0.0185. For the same compound, the Bliss excess [13] was -0.0293, the Bliss excess [14] was -0.0722 and the Bliss excess [15] was -0.0192. It also gave a Bliss excess [16] of 0.0079 and a Bliss excess (HOS (Osteosarcoma)) of -0.0282.
